In patent publication US20100275276A1, “ZEBRAFISH MODEL FOR ASSESSING GASTROINTESTINAL MOTILITY” (THE RESEARCH FOUNDATION OF STATE UNIVERSITY OF NEW YORK, priority 2006, published 2010):
Where a name gives a salt, the structure may show the parent alone. Read-outs that look alike come from different tables or passages of the source.

Tests used:
zebrafish larvae [1] = assay: Fluorescent microsphere spectrophotometric assay of propulsive GI motility; assay type: in vivo; details: for Reduction of fluorescence intensity: 11 dpf larvae, one day after loading; for Total fluorescence intensity one day after loading: 11 day old larvae, 10^−5 mg/ml, n=5
Description: Gastrointestinal (GI) motility disorders such as constipation and dyspepsia are common, but current treatment options are largely ineffective, primarily due to a limited understanding of GI motility. The broad objective is to develop a new zebrafish-based model system for GI motility. Muscular contractions of the GI tract may be directly observed in a zebrafish larva, and GI motility has been quantified as contraction frequency. […] The specific objective of this project is to develop an assay to specifically measure propulsion of luminal contents. […] A decrease in fluorescence emission would indicate that ingested microspheres have been eliminated via propulsive motility. Fluorescence spectroscopy was used to quantify the fluorescence intensity as a function of time.
Total fluorescence emission averaged 62,630±23,780 counts per sec (n=5 samples, 5 larvae grouped per sample) immediately after ingestion in 11 day old larvae. One day later total fluorescence intensity averaged 53,277±6,333 counts per sec, a 15% decrease (n=5, P<0.05). […] Two prokinetic agents, erythromycin and 5-hydroxytryptamine (10^−5 mg/ml), were used to validate the assay. One day after loading, the total fluorescence intensity decreased after application of erythromycin (69,782±10,423, n=5, P<0.09) and with 5 HT (86,820±21,850, n=5, P<0.003).
After larvae spontaneously ingest the fluorescent micro spheres, which were suspended in the medium that the larvae are in, the larvae were washed and separated into 2 groups. The first group was sacrificed and mashed. The total fluorescence emission was measured from the ‘mashed’ larvae. The second group was sacrificed some time later. If GI motility is functional then some fraction of the micro spheres will have been excreted as a result of GI propulsive motility. The second group was sacrificed and mashed and total fluorescence emission was measured.
The difference between Group 1 and Group 2 represents the fraction of beads that has been excreted and this difference is a measure of functional GI propulsive motility.

zebrafish larvae [2] = assay: Spatiotemporal mapping of spontaneous GI motility; assay type: in vivo; details: 11 dpf larvae treated with 50 μM Gleevec
Description: Spontaneous GI motility occurs at regular intervals and propagates along the GI tract at 11 dpf when ICC are fully present in the GI tract.
This Example uses digital imaging and image processing techniques to quantify coordinated GI motility. […] These types of motility can be distinguished in time-lapse digital images.
This Example uses a technique, spatiotemporal mapping, that converts a series of images into a single image with dimensions of time and distance. This single image supplies data on movement, and therefore propagation contractions can be visualized and quantified.

zebrafish larvae [3] = tested on: zebrafish larvae
[4] = 14 dpf Gleevec treated larvae, Table 1 of Example 8
[5] = 14 dpf Gleevec treated larvae, per 300 second interval, Table 1 of Example 8
[6] = 14 dpf larvae, imatinib mesylate 50 μM added at 5 dpf, n = 3
[7] = imatinib mesylate 50 μM added at 5 dpf

SMILES: NCCc1c[nH]c2ccc(O)cc12 [5-hydroxytryptamine]
- Reduction of fluorescence intensity (zebrafish larvae [1]): 53%
- Total fluorescence intensity one day after loading (zebrafish larvae [1]): 86,820±21,850 counts per sec

SMILES: CC[C@H]1OC(=O)[C@H](C)[C@@H](O[C@H]2C[C@@](C)(OC)[C@@H](O)[C@H](C)O2)[C@H](C)[C@@H](O[C@@H]2O[C@H](C)C[C@H](N(C)C)[C@H]2O)[C@](C)(O)C[C@@H](C)C(=O)[C@H](C)[C@@H](O)[C@]1(C)O [erythromycin]
- Reduction of fluorescence intensity (zebrafish larvae [1]): 23%
- Total fluorescence intensity one day after loading (zebrafish larvae [1]): 69,782±10,423 counts per sec

SMILES: Cc1ccc(NC(=O)c2ccc(CN3CCN(C)CC3)cc2)cc1Nc1nccc(-c2cccnc2)n1 [imatinib mesylate]
- Spontaneous motility (spatiotemporal map) (zebrafish larvae [2]): absent
- Distance (zebrafish larvae [3]; [4]): 399.8 ± 67.2 μm
- Velocity (zebrafish larvae [3]; [4]): 10.2 ± 3.1 μm/sec
- Total # contractions, Average (zebrafish larvae [3]; [5]): 2.3 ± 0.58
- Total # contractions, Total (zebrafish larvae [3]; [5]): 7
- Distance (zebrafish larvae [3]; [6]): 399.8 ± 67.2 μm
- Velocity (zebrafish larvae [3]; [6]): 10.2 ± 3.1 μm/sec
- Total # contractions/300 sec (zebrafish larvae [3]; 14 dpf larvae, imatinib mesylate 50 μM added to medium at 5 dpf, n = 3): 7 contractions/300 sec
- Contractions in treated 14 dpf larvae (description) (zebrafish larvae [3]; Gleevec treated 14 dpf larvae): few contractions which were variable and did not fully propagate
- Character of the remaining contractions (zebrafish larvae [3]; [7]): unorganized, shorter and slower
- Effect on number of contractions (zebrafish larvae [3]; [7]): decrease in the number of contractions
